US10323022B2, “Pyrrolidinyl urea, pyrrolidinyl thiourea and pyrrolidinyl guanidine compounds as TrkA kinase inhibitors” (Array BioPharma Inc., priority 2011, dated 2019)

Target: TrkA (Homo sapiens (Human), UniProt P04629)
Assay: TrkA Omnia Assay
Assay type: biochemical
Conditions: averaged IC50; 20 nM enzyme, 500 μM ATP, 10 μM peptide substrate
Method in brief: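 Recombinant TrkA (20 nM) preincubated 10 min at ambient temperature with compound, then Omnia Tyr Peptide #4 (10 μM) and ATP (500 μM) added in 25 mM MOPS pH 7.5, 5 mM MgCl2, 0.005% Triton X-100. Fluorescence (ex 360/em 485 nm) followed continuously for 70 min; IC50 from initial rates by 4- or 5-parameter logistic fit.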

Chain of TrkA (P04629 33-796): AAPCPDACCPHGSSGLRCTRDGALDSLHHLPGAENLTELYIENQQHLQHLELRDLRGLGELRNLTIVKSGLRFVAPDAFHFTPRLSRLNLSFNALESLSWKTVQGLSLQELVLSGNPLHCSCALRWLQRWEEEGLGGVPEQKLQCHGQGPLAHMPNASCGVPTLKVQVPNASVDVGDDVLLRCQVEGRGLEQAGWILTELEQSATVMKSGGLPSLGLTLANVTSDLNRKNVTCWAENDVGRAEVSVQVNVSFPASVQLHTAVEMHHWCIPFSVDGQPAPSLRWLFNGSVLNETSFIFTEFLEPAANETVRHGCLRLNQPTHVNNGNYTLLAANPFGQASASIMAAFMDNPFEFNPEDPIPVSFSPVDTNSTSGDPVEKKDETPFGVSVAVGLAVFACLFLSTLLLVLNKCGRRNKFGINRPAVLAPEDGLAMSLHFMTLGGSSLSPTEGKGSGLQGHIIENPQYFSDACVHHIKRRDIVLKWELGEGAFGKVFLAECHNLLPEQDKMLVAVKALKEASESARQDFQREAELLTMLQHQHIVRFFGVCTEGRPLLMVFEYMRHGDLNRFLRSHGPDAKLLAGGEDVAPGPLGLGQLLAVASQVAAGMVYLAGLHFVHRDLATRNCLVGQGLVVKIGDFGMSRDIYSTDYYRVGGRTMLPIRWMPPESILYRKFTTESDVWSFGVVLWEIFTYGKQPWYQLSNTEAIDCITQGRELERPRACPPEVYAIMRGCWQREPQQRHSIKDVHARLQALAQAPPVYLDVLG

Q: With COCCN1C[C@@H](NC(=O)Nc2c(Br)c(C(=O)O)nn2-c2ccccc2)[C@H](c2ccc(F)c(F)c2)C1 [Example 553, 4-bromo-5-(3-((3S,4R)-4-(3,4-difluorophenyl)-1-(2-methoxyethyl)pyrrolidin-3-yl)ureido)-1-phenyl-1H-pyrazole-3-carboxylic acid] as the compound, how does the IC50 read?
A: 100 to 1000 nM

Q: With CNC(=O)c1nn(-c2ccccc2)c(NC(=O)N[C@@H]2CN(CCOC)C[C@H]2c2ccc(F)c(F)c2)c1Br [Example 554, 4-bromo-5-(3-((3S,4R)-4-(3,4-difluorophenyl)-1-(2-methoxyethyl)pyrrolidin-3-yl)ureido)-N-methyl-1-phenyl-1H-pyrazole-3-carboxamide] as the compound, how does the IC50 read?
A: < 100 nM

Q: COCCN1C[C@@H](NC(=O)Nc2c(Br)c(C(=O)NOC)nn2-c2ccccc2)[C@H](c2ccc(F)c(F)c2)C1 [Example 555, 4-bromo-5-(3-((3S,4R)-4-(3,4-difluorophenyl)-1-(2-methoxyethyl)pyrrolidin-3-yl)ureido)-N-methoxy-1-phenyl-1H-pyrazole-3-carboxamide] was tested. Which IC50 did it give?
A: < 100 nM

Q: For COCCN1C[C@@H](NC(=O)Nc2c(Cl)c(-c3cnn(CCOC)c3)nn2-c2ccccc2)[C@H](c2ccc(F)c(F)c2)C1 [Example 556, 1-(4-chloro-1′-(2-methoxyethyl)-1-phenyl-1H, 1′H-[3,4′-bipyrazol]-5-yl)-3-((3S,4R)-4-(3,4-difluorophenyl)-1-(2-methoxyethyl)pyrrolidin-3-yl)urea], which IC50 is on record?
A: < 100 nM

Q: With COCCN1C[C@@H](NC(=O)Nc2c(C)c(OC[C@@H](O)CO)nn2-c2ccccc2)[C@H](c2cc(F)cc(F)c2)C1 [Example 557, 1-((3S,4R)-4-(3,5-difluorophenyl)-1-(2-methoxyethyl)pyrrolidin-3-yl)-3-(3-((S)-2,3-dihydroxvpropoxy)-4-methyl-1-phenyl-1H-pyrazol-5-yl)urea] as the compound, how does the IC50 read?
A: < 100 nM

Q: COCCN1C[C@@H](NC(=O)Nc2c(C)c(OC[C@H](O)CO)nn2-c2ccccc2)[C@H](c2cc(F)cc(F)c2)C1 [Example 558, 1-((3S,4R)-4-(3,5-difluorophenyl)-1-(2-methoxyethyl)pyrrolidin-3-yl)-3-(3-((R)-2,3-dihydroxypropoxy)-4-methyl-1-phenyl-1H-pyrazol-5-yl)urea] was tested. Which IC50 did it give?
A: < 100 nM

Q: How did the IC50 turn out when COCCN1C[C@@H](NC(=O)Nc2c(C)c(OC[C@H](O)CO)nn2-c2ccccc2)[C@H](c2cc(F)c(F)c(F)c2)C1 [Example 559, 1-(3-((R)-2,3-dihydroxvpropoxy)-4-methyl-1-phenyl-1H-pyrazol-5-yl)-3-((3S,4R)-1-(2-methoxyethyl)-4-(3,4,5-trifluorophenyl)pyrrolidin-3-yl)urea] was run?
A: < 100 nM

Q: Which IC50 does the source give for COCCN1C[C@@H](NC(=O)Nc2c(C)c(OC[C@@H](O)CO)nn2-c2ccccc2)[C@H](c2cc(F)c(F)c(F)c2)C1 [Example 560, 1-(3-((S)-2,3-dihydroxvpropoxy)-4-methyl-1-phenyl-1H-pyrazol-5-yl)-3-((3S,4R)-1-(2-methoxyethyl)-4-(3,4,5-trifluorophenyl)pyrrolidin-3-yl)urea] here?
A: < 100 nM

Q: For COCCN1C[C@@H](NC(=O)Nc2c(C)c(OC[C@H](C)O)nn2-c2ccccc2)[C@H](c2cc(F)c(F)c(F)c2)C1 [Example 561, 1-(3-((S)-2-hydroxypropoxy)-4-methyl-1-phenyl-1H-pyrazol-5-yl)-3-((3S,4R)-1-(2-methoxyethyl)-4-(3,4,5-trifluorophenyl)pyrrolidin-3-yl)urea], which IC50 is on record?
A: < 100 nM

Q: With COCCN1C[C@@H](NC(=O)Nc2c(C)c(OC[C@@H](O)COC)nn2-c2ccccc2)[C@H](c2ccc(F)c(F)c2)C1 [Example 562, 1-((3S,4R)-4-(3,4-difluorophenyl)-1-(2-methoxyethyl)pyrrolidin-3-yl)-3-(3-((S)-2-hydroxy-3-methoxypropoxy)-4-methyl-1-phenyl-1H-pyrazol-5-yl)urea] as the compound, how does the IC50 read?
A: < 100 nM

Q: COCCN1C[C@@H](NC(=O)Nc2c(C)c(OC[C@H](O)COC)nn2-c2ccccc2)[C@H](c2ccc(F)c(F)c2)C1 [Example 563, 1-((3S,4R)-4-(3,4-difluorophenyl)-1-(2-methoxyethyl)pyrrolidin-3-yl)-3-(3-((R)-2-hydroxy-3-methoxypropoxy)-4-methyl-1-phenyl-1H-pyrazol-5-yl)urea] was tested. Which IC50 did it give?
A: < 100 nM

Q: With COCCN1C[C@@H](NC(=O)Nc2c(C)c(OC[C@@H](O)COC)nn2-c2ccccc2)[C@H](c2cc(F)c(F)c(F)c2)C1 [Example 564, 1-(3-((S)-2-hydroxy-3-methoxypropoxy)-4-methyl-1-phenyl-1H-pyrazol-5-yl)-3-((3S,4R)-1-(2-methoxyethyl)-4-(3,4,5-trifluorophenyl)pyrrolidin-3-yl)urea] as the compound, how does the IC50 read?
A: < 100 nM

Q: With COCCN1C[C@@H](NC(=O)Nc2c(C)c(OC[C@H](O)COC)nn2-c2ccccc2)[C@H](c2cc(F)c(F)c(F)c2)C1 [Example 565, 1-(3-((R)-2-hydroxy-3-methoxypropoxy)-4-methyl-1-phenyl-1H-pyrazol-5-yl)-3-((3S,4R)-1-(2-methoxyethyl)-4-(3,4,5-trifluorophenyl)pyrrolidin-3-yl)urea] as the compound, how does the IC50 read?
A: < 100 nM

Q: With COCCN1C[C@@H](NC(=O)Nc2c(Br)c(-c3cnn(C)c3)nn2C)[C@H](c2ccc(F)c(F)c2)C1 [Example 566, 1-(4-bromo-1,1′-dimethyl-1H, 1′H-[3,4′-bipyrazol]-5-yl)-3-((3S,4R)-4-(3,4-difluorophenyl)-1-(2-methoxyethyl)pyrrolidin-3-yl)urea] as the compound, how does the IC50 read?
A: 100 to 1000 nM

Q: COCCN1C[C@@H](NC(=O)Nc2c(Cl)c(-c3cnn(C)c3)nn2C)[C@H](c2ccc(F)c(F)c2)C1 [Example 567, 1-(4-chloro-1,1′-dimethyl-1H, 1′H-[3,4′-bipyrazol]-5-yl)-3-((3S,4R)-4-(3,4-difluorophenyl)-1-(2-methoxyethyl)pyrrolidin-3-yl)urea] was tested. Which IC50 did it give?
A: 100 to 1000 nM

Q: With COCCN1C[C@@H](NC(=O)Nc2c(Cl)c(C3CCOCC3)nn2-c2ccccc2)[C@H](c2ccc(F)c(F)c2)C1 [Example 568, 1-(4-chloro-1-phenyl-3-(tetrahydro-2H-pyran-4-yl)-1H-pyrazol-5-yl)-3-((3S,4R)-4-(3,4-difluorophenyl)-1-(2-methoxyethyl)pyrrolidin-3-yl)urea] as the compound, how does the IC50 read?
A: < 100 nM

Q: With COCCN1C[C@@H](NC(=O)Nc2c(Cl)c(C3CCN(C(=O)OC(C)(C)C)CC3)nn2-c2ccccc2)[C@H](c2ccc(F)c(F)c2)C1 [Example 569, Tert-butyl 4-(4-chloro-5-(3-((3S,4R)-4-(3,4-difluorophenyl)-1-(2-methoxyethyl)pyrrolidin-3-yl)ureido)-1-phenyl-1H-pyrazol-3-yl)piperidine-1-carboxylate] as the compound, how does the IC50 read?
A: < 100 nM

Q: How did the IC50 turn out when COCCN1C[C@@H](NC(=O)Nc2c(Cl)c(C3CCOCC3)nn2-c2ccccc2)[C@H](c2ccc(F)cc2)C1 [Example 570, 1-(4-chloro-1-phenyl-3-(tetrahydro-2H-pyran-4-yl)-1H-pyrazol-5-yl)-3-((3S,4R)-4-(4-fluorophenyl)-1-(2-methoxyethyl)pyrrolidin-3-yl)urea] was run?
A: < 100 nM

Q: With COCCN1C[C@@H](NC(=O)Nc2c(Cl)c(-c3c(C)noc3C)nn2-c2ccccc2)[C@H](c2ccc(F)c(F)c2)C1 [Example 571, 1-(4-chloro-3-(3,5-dimethylisoxazol-4-yl)-1-phenyl-1H-pyrazol-5-yl)-3-((3S,4R)-4-(3,4-difluorophenyl)-1-(2-methoxyethyl)pyrrolidin-3-yl)urea] as the compound, how does the IC50 read?
A: < 100 nM

Q: Which IC50 does the source give for COCCN1C[C@@H](NC(=O)Nc2c(Cl)c([C@H]3CCCN3C(=O)OC(C)(C)C)nn2-c2ccccc2)[C@H](c2ccc(F)c(F)c2)C1 [Example 572, (R)-tert-butyl 2-(4-chloro-5-(3-((3S,4R)-4-(3,4-difluorophenyl)-1-(2-methoxyethyl)pyrrolidin-3-yl)ureido)-1-phenyl-1H-pyrazol-3-yl)pyrrolidine-1-carboxylate] here?
A: 100 to 1000 nM

Q: How did the IC50 turn out when COCCN1C[C@@H](NC(=O)Nc2c(Cl)c([C@@H]3CCCN3C(=O)OC(C)(C)C)nn2-c2ccccc2)[C@H](c2ccc(F)c(F)c2)C1 [Example 573, (S)-tert-butyl 2-(4-chloro-5-(3-((3S,4R)-4-(3,4-difluorophenyl)-1-(2-methoxyethyl)pyrrolidin-3-yl)ureido)-1-phenyl-1H-pyrazol-3-yl)pyrrolidine-1-carboxylate] was run?
A: 100 to 1000 nM

Q: How did the IC50 turn out when COCCN1C[C@@H](NC(=O)Nc2c(Br)c(C3CCOCC3)nn2-c2ccccc2)[C@H](c2ccc(F)c(F)c2)C1 [Example 574, 1-(4-bromo-1-phenyl-3-(tetrahydro-2H-pyran-4-yl)-1H-pyrazol-5-yl)-3-((3S,4R)-4-(3,4-difluorophenyl)-1-(2-methoxyethyl)pyrrolidin-3-yl)urea] was run?
A: < 100 nM

Q: COCCN1C[C@@H](NC(=O)Nc2c(Br)c(C3CCN(C(=O)OC(C)(C)C)CC3)nn2-c2ccccc2)[C@H](c2ccc(F)c(F)c2)C1 [Example 575, Tert-butyl 4-(4-bromo-5-(3-((3S,4R)-4-(3,4-difluorophenyl)-1-(2-methoxyethyl)pyrrolidin-3-yl)ureido)-1-phenyl-1H-pyrazol-3-yl)piperidine-1-carboxylate] was tested. Which IC50 did it give?
A: < 100 nM

Q: With COCCN1C[C@@H](NC(=O)Nc2c(Br)c(C3CCOCC3)nn2-c2ccccc2)[C@H](c2ccc(F)cc2)C1 [Example 576, 1-(4-bromo-1-phenyl-3-(tetrahydro-2H-pyran-4-yl)-1H-pyrazol-5-yl)-3-((3S,4R)-4-(4-fluorophenyl)-1-(2-methoxyethyl)pyrrolidin-3-yl)urea] as the compound, how does the IC50 read?
A: < 100 nM

Q: For COCCN1C[C@@H](NC(=O)Nc2c(Br)c(-c3c(C)noc3C)nn2-c2ccccc2)[C@H](c2ccc(F)c(F)c2)C1 [Example 577, 1-(4-bromo-3-(3,5-dimethylisoxazol-4-yl)-1-phenyl-1H-pyrazol-5-yl)-3-((3S,4R)-4-(3,4-difluorophenyl)-1-(2-methoxyethyl)pyrrolidin-3-yl)urea], which IC50 is on record?
A: < 100 nM

Q: For COCCN1C[C@@H](NC(=O)Nc2c(Br)c([C@H]3CCCN3C(=O)OC(C)(C)C)nn2-c2ccccc2)[C@H](c2ccc(F)c(F)c2)C1 [Example 578, (R)-tert-butyl 2-(4-bromo-5-(3-((3S,4R)-4-(3,4-difluorophenyl)-1-(2-methoxyethyl)pyrrolidin-3-yl)ureido)-1-phenyl-1H-pyrazol-3-yl)pyrrolidine-1-carboxylate], which IC50 is on record?
A: 100 to 1000 nM
